What was measured:
human recombinant HDAC6 = target: T1, human recombinant HDAC6 (Homo sapiens, UniProt Q9UBN7); assay: HDAC6 fluorometric assay, recombinant enzyme; type: biochemical; details: tested at 10 μM and 25 μM; FIG. 2D
T1 construct: purchased Enzo Life Sciences BML-AK516
T1 sequence (Q9UBN7 1-1215): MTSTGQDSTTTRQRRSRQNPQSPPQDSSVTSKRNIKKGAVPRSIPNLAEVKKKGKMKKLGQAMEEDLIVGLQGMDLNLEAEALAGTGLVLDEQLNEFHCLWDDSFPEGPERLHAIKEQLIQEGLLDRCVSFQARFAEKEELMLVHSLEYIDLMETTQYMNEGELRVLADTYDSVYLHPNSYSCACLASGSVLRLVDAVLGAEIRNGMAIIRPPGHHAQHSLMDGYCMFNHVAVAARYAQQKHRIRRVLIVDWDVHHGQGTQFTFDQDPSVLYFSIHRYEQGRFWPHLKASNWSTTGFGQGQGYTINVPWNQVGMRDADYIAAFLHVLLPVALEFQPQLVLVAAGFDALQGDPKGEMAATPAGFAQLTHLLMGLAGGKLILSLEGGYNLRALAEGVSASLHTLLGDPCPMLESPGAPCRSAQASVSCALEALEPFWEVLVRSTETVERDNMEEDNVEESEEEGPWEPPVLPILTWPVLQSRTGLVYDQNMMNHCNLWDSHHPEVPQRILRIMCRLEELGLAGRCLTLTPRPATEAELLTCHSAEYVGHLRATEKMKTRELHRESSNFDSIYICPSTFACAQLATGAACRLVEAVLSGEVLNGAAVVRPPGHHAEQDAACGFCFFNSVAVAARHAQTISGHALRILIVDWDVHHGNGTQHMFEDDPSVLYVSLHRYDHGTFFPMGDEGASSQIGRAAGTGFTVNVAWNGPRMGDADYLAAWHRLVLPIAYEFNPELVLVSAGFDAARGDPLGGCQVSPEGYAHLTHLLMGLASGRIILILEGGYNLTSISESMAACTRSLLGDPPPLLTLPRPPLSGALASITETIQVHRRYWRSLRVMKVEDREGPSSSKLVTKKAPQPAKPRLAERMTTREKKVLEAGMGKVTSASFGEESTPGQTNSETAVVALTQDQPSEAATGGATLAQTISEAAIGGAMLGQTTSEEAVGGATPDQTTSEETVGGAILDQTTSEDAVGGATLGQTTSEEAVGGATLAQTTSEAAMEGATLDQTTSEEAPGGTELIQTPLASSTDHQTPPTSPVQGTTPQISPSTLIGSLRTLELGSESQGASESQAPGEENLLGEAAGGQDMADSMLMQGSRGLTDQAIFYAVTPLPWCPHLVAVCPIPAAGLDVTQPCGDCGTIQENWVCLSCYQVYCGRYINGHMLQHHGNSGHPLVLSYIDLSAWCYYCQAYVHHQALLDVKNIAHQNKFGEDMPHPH
Description: (§1) FIGS. 2A-2F show measurement of intrinsic and in situ HDACi activities. […] IC50 values were calculated from nonlinear regression plots using GraphPad Prism5 software. […] Recombinant HDAC6 was incubated with each drug at the indicated concentrations. IC50 values were calculated from nonlinear regression plots using GraphPad Prism5 software.
(§2) HDAC activity assay. In vitro HDAC inhibition was measured by using the HDAC fluorimetric assay/drug discovery Kit (Enzo Life Sciences, BML-AK500) and the HDAC6 fluorometric drug discovery kit (Enzo Life Sciences, BML-AK516) following the manufacturer's protocols and instructions. IC50 values were calculated from nonlinear […] plots using GraphPad Prism5 software.
(§3) HDAC1 and HDAC2 are enriched in nuclear extracts whereas HDAC6 is a cytosolic enzyme that is the principal modulator of the acetylation status of Hsp90. […] Again, TSA served as the positive control in FIG. 2D.

[1] = test system: HDACs from Hela cell nuclear extract; type: biochemical; details: HeLa cell nuclear extract; tested at 10 μM and 25 μM; FIG. 2B
Description: as §1, §2, §3

22Rv1 cells = assay: MTT cell viability assay, 22Rv1 cells; type: cell-based; details: Day 3, 0.1 μM-10 μM, FIG. 6E
Description: (§4) (6A) C4-2 cells were seeded in 96-well plates and 24 h later, they were treated with the indicated compounds (0.1 μM-10 μM) or with vehicle (DMSO). Cell viability was measured by the MTT assay on Days 0 and 3 of treatment. EC50 values were calculated from nonlinear regression plots using GraphPad Prism5 software. […] Cell viability was measured by the MTT assay on Days 0 and 3 of treatment. […] Cell viability was measured by the MTT assay on Days 0 and 3 of treatment. […] (6D) 22Rv1 cells were infected with AR shRNA lentivirus, or control shRNA. 72 h after infection, cells were plated and viable cells were measured by the MTT assay on the indicated days (6D, bottom). Cells were also harvested for western blot analysis and probed with antibody to AR, which was also reactive with the AR splice variant AR-V7 (6D, top). (6E) 22Rv1 cells were seeded in 96-well plates and 24 h later, they were treated with the indicated compounds (0.1 μM-10 μM) or with vehicle (DMSO). Cell viability was measured by the MTT assay on Days 0 and 3 of treatment. EC50 values were calculated from nonlinear regression plots using GraphPad Prism5 software.
(§5) Cell Proliferation Assay. Cells were trypsinized and 6000 cells/well were seeded in 96-well plates coated with poly-D-lysine. The cells were seeded in phenol red-free medium supplemented with 10% FBS, 100 units/ml penicillin, 100 μg/ml streptomycin, 2 mM L-glutamine mixture and sodium pyruvate (1 mM) for C4-2 cells and phenol red-free medium supplemented with 10% FBS, 100 units/ml penicillin, 100 μg/ml streptomycin and 2 mM L-glutamine mixture for 22Rv1 cells. The cells were grown at 37° C. in 5% CO2. Twenty four hours after seeding in the 96-well plates, the cells were treated with indicated compound or DMSO (vehicle). The culture medium was not changed during the time course of the assay. On Day zero and on Day 3, cell viability was determined using the MTT assay. MTT (10 μL, 5 mg/mL) was added to each well and incubated for 2 h at 37° C. The formazan crystal sediments were dissolved in 100 μL of DMSO, and the absorbance at 570 nm was measured using the BioTek Synergy 2 Microplate Reader (BioTek, Winooski, Vt.). […] IC50 values were calculated from nonlinear […] plots using GraphPad Prism5 software.

C4-2 cells = assay: MTT cell viability assay, C4-2 cells; type: cell-based; details: MTT, Day 3; up to 10 μM; FIG. 6A
Description: as §4, §5

## CCOC(=O)/C=C/c1ccc(N2C(=S)N(c3ccc(C#N)c(C(F)(F)F)c3)C(=O)C2(C)C)cc1F [Compound 1002, (E)-ethyl-3-(4-(3-(4-cyano-3-(trifluoromethyl)phenyl)-5,5-dimethyl-4-oxo-2-thioxoimidazolidin-1-yl)-2-fluorophenyl)acrylate]
Human recombinant HDAC6
  inhibitory activity against HDAC6: did not show significant inhibitory activity
[1]
  inhibition of nuclear HDAC activity: did not inhibit nuclear HDAC activity even up to a concentration of 25 μM
22Rv1 cells
  effect on growth of 22Rv1 cells: modest effect at high concentrations
C4-2 cells
  effect on C4-2 cell growth: unable to appreciably inhibit C4-2 cell growth

Reference: patent US9963433B2, “Anticancer drugs including the chemical structures of an androgen receptor ligand and a histone deacetylase inhibitor” (Wayne State University, priority 2016, dated 2018)
